From US20080063601A1, “Compositions and methods relating to polycystic kidney disease” (priority 2004, published 2008)
Where two headings read alike, the source gives them in different places.

Tests used:
HeLa cells [1] = experiment: [3H]-triptolide competition binding in intact HeLa cells
Procedure: To gain insight into triptolide's mechanism of action Applicant sought to determine its specific binding activity utilizing a system employing [^3H]-triptolide. In addition to competition with 1 μM or 10 μM unlabeled triptolide, Applicant also measured the binding affinities of triptolide analogs (FIG. 3A). These analogs have been previously described and differ structurally from triptolide in the hydrolysis of the 12,13 epoxide (2), and formation of the ketone at the C-14 hydroxyl (3) (FIG. 3A). […] The effective interaction of these analogs with a presumed triptolide binding entity led us to their use in subsequent experiments addressing the mode of triptolide's biological functions.
Labeling studies were performed by the addition of approximately 30 nM [^3H]-triptolide directly into the culture media for one hour at 37° C. For cold competition studies, 1 μM triptolide was incubated with the cells for one hour before or after the addition of [^3H]-triptolide. Triptolide analog studies followed a similar protocol where concentrations used for competition were either 1 or 10 μM added before [^3H]-triptolide. Medium was removed and cells were washed 3× in cold PBS. Total cell lysates were prepared (150 mM NaCl, 50 mM Tris-HCl pH 7.4, 1 mM EDTA, 1% Triton X-100, and Complete™ protease inhibitors (Roche)) and protein was quantitated before measuring the [^3H]-triptolide binding activity via liquid scintillation.

HeLa cells [2] = experiment: in vitro; assay type: cell-based; settings: HeLa, 100 nM
Excerpt: (§1) To investigate further the role of calcium in triptolide function Applicant utilized a system to buffer intracellular calcium levels. Various GFP-parvalbumin (PV) fusion proteins can be specifically localized to either the nucleus or the cytoplasm through a nuclear localization or exclusion signal (NLS or NES, respectively) (Pusl, et al., 2002, J Biol Chem 277, 27517-27527). Parvalbumin has two EF-hand calcium binding domains and can efficiently reduce the availability of free calcium in the cell (Pauls, et al., 1996, Biochim Biophys Acta 1306, 39-54). HeLa cells were transiently transfected with the GFP vector control, NES-PV-GFP, or NLS-PV-GFP in calcium containing media and efficient expression of each construct was determined by GFP localization (FIG. 6A). Normal cell growth was first assessed throughout 48 hours with each of the constructs. […] For triptolide experiments, cells were transfected and allowed to express the construct for 24 hours before the addition of 100 nM triptolide. After 24 and 48 hours of treatment, cells were assessed for viability. […] Since the parvalbumin buffering experiments are done in the presence of extracellular calcium, the cell can operate normally in that intracellular calcium stores may be refilled. It is reasonable to expect then if calcium homeostasis is being affected (i.e., cytosolic calcium levels increase) by triptolide, then parvalbumin would eventually reach a saturation point. This might explain why the rescue from apoptosis is transient through the 24 hour time point but is lost by 48 hours.
(§2) All parvalbumin-GFP constructs and control vectors (Pusl, et al., 2002, J Biol Chem 277, 27517-27527) were a gift of Anton Bennett (Yale University). Hela cells were plated out on 6- or 12-well plates at a density of 5×10^5 or 1×10^5, respectively. […] Cell viability was assessed at 24 and 48 hours post triptolide addition by morphology and trypan blue dye exclusion.

in vitro = assay type: cell-based; settings: human
Excerpt: as §1, §2

[3] = test system: Pkd1^−/− murine model of polycystic kidney disease; assay type: in vivo, mice; settings: for Alive Pkd1^−/− (birth): 0.07 mg/kg/day i.p. to pregnant mice; for Alive Pkd1^−/− (birth) / Ave. kidney wet weight Pkd1^−/−: E10.5 until birth; for Ave. kidney wet weight Pkd1^−/−: 0.07 mg/kg/day i.p.
Procedure: As per approved IACUC animal protocol, Pkd1^+/−/Pkd1^+/− mice were mated and pregnant mice were divided into control (DMSO) or experimental (triptolide) groups. A total volume of 100 μl of PBS with no more than 5% DMSO or DMSO/0.07 mg/kg/day triptolide was injected i.p. with a 28 G ½ insulin syringe. Mice were weighed and injected starting at E10.5 until birth. All pups were examined for length and developmental staging such as whisker formation. Kidneys were harvested, weighed, and fixed in 4% paraformaldehyde before histological preparation.
Kidneys were prepared by sagittal cross-sectioning and hematoxylin and eosin staining. All kidneys were photographed under the same magnification (4×) and cystic burden was computed using Image J analysis software (NIH). The area of cysts within the total area of the kidney (pixels) was calculated as a final percentage of cystic burden in the kidney. Immunohistochemical analysis of active caspase-3 was completed as per manufacturer's protocol.
Following successful Pkd1^+/− Pkd1^+/− matings, 0.07 mg/kg/day of triptolide or DMSO control was injected i.p. into pregnant mice until they gave birth. All pups were assessed for viability, length, developmental staging, and wet kidney weight. A total of 59 pups from DMSO treated females and 100 pups from triptolide treated females were examined for multiple parameters, such as genotypic distribution, developmental stage at time of birth, and average kidney weights (Table 1). […] Approximately 20% of all Pkd1^−/− mice were born alive from each treatment group. However, severe edematous abnormalities were obvious upon necropsy.

HeLa cells [4] = experiment: [3H]-triptolide binding in presence or absence of extracellular calcium
Excerpt: To understand further the nature of triptolide's interaction within the cell, Applicant altered cell culture conditions to examine if [^3H]-triptolide binding would be affected. […] Additionally, it has been established that aberrant calcium signaling can result in cell death (Rizzuto, et al., 2003, Oncogene 22, 8619-8627; Orrenius, et al., 2003, Nat Rev Mol Cell Biol 4, 552-565). Due to triptolide's own link with NFκB and NF-AT and its propensity to induce cell death, Applicant assessed whether triptolide binding could be modulated by free calcium levels. Adherent HeLa cells were cultured in the presence or absence of calcium containing medium for 16 hours before [^3H]-triptolide addition. […] It is also noteworthy that an increase in cell density (not cell number) also increases triptolide binding regardless of calcium levels. Additionally, specific calcium chelation by 10 mM EGTA for one hour in calcium containing medium increased binding by nearly 2 fold.
Labeling studies were performed by the addition of approximately 30 nM [^3H]-triptolide directly into the culture media for one hour at 37° C. […] Total cell lysates were prepared (150 mM NaCl, 50 mM Tris-HCl pH 7.4, 1 mM EDTA, 1% Triton X-100, and Complete™ protease inhibitors (Roche)) and protein was quantitated before measuring the [^3H]-triptolide binding activity via liquid scintillation.

[5] = Pkd1^−/− pups, 0.07 mg/kg/day i.p. during gestation

## CC(C)[C@]12O[C@H]1[C@@H]1O[C@]13[C@]1(O[C@H]1C[C@H]1C4=C(CC[C@@]13C)C(=O)OC4)[C@@H]2O [triptolide]
HeLa cells [1]; 1 μM cold triptolide after [3H]-triptolide
  nature of triptolide binding (out-competed by subsequent excess unlabeled triptolide): reversible
HeLa cells [1]; 1 or 10 μM unlabeled competitor for 1 h before approx. 30 nM [3H]-triptolide for 1 h
  displacement of / competition for [3H]-triptolide binding: significantly competed
HeLa cells [2]; by 48 hours
  cell death in all transfection conditions: complete cell death
HeLa cells [2]; cytosolic parvalbumin (NES-PV-GFP), 24 hours
  apoptosis: 15-20%
In vitro
  cytotoxicity at 24 h, 0.1 µM: 50%
[3]
  Alive Pkd1^−/− (birth): Approximately 20%
[3]; listed as Triptolide
  Alive Pkd1^−/− (birth): 4 (22%)
[3]; mean ± SE
  Ave. kidney wet weight Pkd1^−/−: 24.6 ± 0.8 mg
[3]; mean ± SE, listed as Triptolide
  Ave. kidney wet weight Pkd1^−/−: 21.8 ± 2.8 mg
[3]; Pkd1^−/− kidneys, 0.07 mg/kg/day i.p. during gestation
  active caspase-3 immunoreactivity in kidney sections: did not show any significant activation of the caspase pathway
[3]; [5]
  diameter of cyst lumens on average: smaller
  maximum cyst burden: 25%
[3]; Pkd1^−/− pups, 0.07 mg/kg/day i.p. during gestation, mean ± SE
  cystic burden (cyst area as percentage of total kidney area), average: 15±2.1%
[3]; mouse, in vivo
  wet kidney weight or overall size of Pkd1^+/+ or Pkd1^+/− mice versus DMSO: no significant difference
HeLa cells [4]; 10 mM EGTA 1 h in calcium containing medium
  increase of [3H]-triptolide binding on calcium chelation: ~2 fold
HeLa cells [4]; calcium-free medium 16 h before [3H]-triptolide
  increase of [3H]-triptolide binding in absence of extracellular calcium: 2-4 fold
